Literature values as cited in patent US9487504B2, “Imidazolyl analogs as syk inhibitors” (Merck Sharp & Dohme Corp., priority 2012, dated 2016).

Experiments:
allergic rhinitis [1] = details: dosed intranasally, phase I/II study; cited from earlier work
allergic rhinitis [2] = details: phase II clinical trial; cited from earlier work

For `Oc1cccc(Nc2ncc(F)c(Nc3cccc(O)c3)n2)c1` [Example R112], the PGD2 change (allergic rhinitis [1]) is listed as “statistically significant decrease in PGD2”, the clinical safety (allergic rhinitis [1]) is listed as “safe across a range of indicators” and the efficacy versus placebo (allergic rhinitis [2]) is listed as “lack of efficacy versus placebo”.
